# According to ChEMBL document CHEMBL5104101, “Insights into the modular design of kinase inhibitors and application to Abl and Axl” (RSC Med Chem, 2022):
# The source made the active and inactive calls. The calls are words filed in the database; no cut-off is given here.
# What was measured:
# [1] = biological target: RAF proto-oncogene serine/threonine-protein kinase (Homo sapiens) (UniProt P04049); assay: Inhibition of CRAF (unknown origin) by Nano-syn mobility shift assay
# [2] = biological target: Vascular endothelial growth factor receptor 2 (Homo sapiens) (UniProt P35968); assay: Inhibition of KDR (unknown origin) by Nano-syn mobility shift assay
# [3] = biological target: Tyrosine-protein kinase ABL1 (Homo sapiens, UniProt P00519); assay: Inhibition of NanoLuc-tagged ABL1 wild type (unknown origin) expressed in HEK293 cells by NanoBRET TE assay; format: cell-based
# Tyrosine-protein kinase ABL1, sequence (P00519 whole entry): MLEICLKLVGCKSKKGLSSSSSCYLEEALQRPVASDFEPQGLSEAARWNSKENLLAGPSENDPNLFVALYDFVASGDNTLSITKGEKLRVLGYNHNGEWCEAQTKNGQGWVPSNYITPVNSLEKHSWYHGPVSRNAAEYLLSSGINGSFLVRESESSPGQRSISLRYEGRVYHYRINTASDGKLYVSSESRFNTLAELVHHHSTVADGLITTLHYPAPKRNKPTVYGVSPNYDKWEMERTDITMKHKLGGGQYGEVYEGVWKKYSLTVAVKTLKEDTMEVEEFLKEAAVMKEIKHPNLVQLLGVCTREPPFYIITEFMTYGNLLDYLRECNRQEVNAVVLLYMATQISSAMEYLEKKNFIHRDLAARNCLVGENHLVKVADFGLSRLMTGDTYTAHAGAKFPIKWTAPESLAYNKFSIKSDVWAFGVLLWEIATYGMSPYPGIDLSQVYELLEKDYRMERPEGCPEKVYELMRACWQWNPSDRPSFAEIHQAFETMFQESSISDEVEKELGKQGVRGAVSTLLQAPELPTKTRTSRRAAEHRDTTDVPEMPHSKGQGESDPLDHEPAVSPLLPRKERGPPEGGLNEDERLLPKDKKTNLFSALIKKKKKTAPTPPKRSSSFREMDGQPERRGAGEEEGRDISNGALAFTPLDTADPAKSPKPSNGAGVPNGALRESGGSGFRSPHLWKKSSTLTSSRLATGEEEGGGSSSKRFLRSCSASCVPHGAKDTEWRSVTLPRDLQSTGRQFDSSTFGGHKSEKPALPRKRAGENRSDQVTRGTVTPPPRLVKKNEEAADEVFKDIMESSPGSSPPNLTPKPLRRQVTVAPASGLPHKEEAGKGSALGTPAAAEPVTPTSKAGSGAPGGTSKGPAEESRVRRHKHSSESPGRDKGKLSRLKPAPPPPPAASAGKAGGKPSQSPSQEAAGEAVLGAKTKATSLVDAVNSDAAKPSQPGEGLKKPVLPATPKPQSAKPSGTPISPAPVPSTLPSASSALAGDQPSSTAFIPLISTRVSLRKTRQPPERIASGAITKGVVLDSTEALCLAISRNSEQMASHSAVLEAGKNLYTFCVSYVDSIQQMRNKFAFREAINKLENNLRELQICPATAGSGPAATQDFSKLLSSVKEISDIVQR
# BaF3 [4] = assay: Cytotoxicity against mouse BaF3 cells stably expressing ABL wildtype assessed as cell growth inhibition incubated for 72 hrs by celltiter-glo luminescent cell viability assay; format: functional
# BaF3 [5] = assay: Cytotoxicity against mouse BaF3 cells stably expressing ABL-T315I mutant assessed as cell growth inhibition incubated for 72 hrs by celltiter-glo luminescent cell viability assay; format: functional
# K562 = assay: Cytotoxicity against human K562 cells assessed as cell growth inhibition incubated for 72 hrs by celltiter-glo luminescent cell viability assay; format: functional
# [6] = biological target: MAP kinase-interacting serine/threonine-protein kinase 2 (Homo sapiens) (UniProt Q9HBH9); assay: Inhibition of MKNK2 (unknown origin) by Nano-syn mobility shift assay
# [7] = biological target: MAP kinase-interacting serine/threonine-protein kinase 1 (Homo sapiens) (UniProt Q9BUB5); assay: Inhibition of MKNK1 (unknown origin) by Nano-syn mobility shift assay
# [8] = biological target: Mitogen-activated protein kinase 11 (Homo sapiens) (UniProt Q15759); assay: Inhibition of MAPK11 (unknown origin) by Nano-syn mobility shift assay
# [9] = biological target: Mitogen-activated protein kinase 14 (Homo sapiens) (UniProt Q16539); assay: Inhibition of MAPK14 (unknown origin) by Nano-syn mobility shift assay
# Mitogen-activated protein kinase 14 (Homo sapiens), sequence (Q16539 whole entry): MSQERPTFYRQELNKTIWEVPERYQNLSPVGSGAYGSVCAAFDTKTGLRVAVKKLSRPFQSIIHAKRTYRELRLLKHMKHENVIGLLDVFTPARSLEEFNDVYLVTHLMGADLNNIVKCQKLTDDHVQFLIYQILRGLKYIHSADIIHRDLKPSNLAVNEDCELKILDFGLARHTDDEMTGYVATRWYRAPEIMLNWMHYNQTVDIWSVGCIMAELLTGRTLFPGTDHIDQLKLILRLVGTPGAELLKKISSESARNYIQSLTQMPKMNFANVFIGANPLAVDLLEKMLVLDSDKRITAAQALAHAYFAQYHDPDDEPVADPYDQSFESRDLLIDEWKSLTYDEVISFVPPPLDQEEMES
# [10] = biological target: Ephrin type-A receptor 2 (Homo sapiens) (UniProt P29317); assay: Inhibition of EPH-A2 (unknown origin) by Nano-syn mobility shift assay
# [11] = biological target: Fibroblast growth factor receptor 1 (Homo sapiens) (UniProt P11362); assay: Inhibition of FGFR1 (unknown origin) by Nano-syn mobility shift assay
# [12] = biological target: Tyrosine-protein kinase Fgr (Homo sapiens) (UniProt P09769); assay: Inhibition of FGR (unknown origin) by Nano-syn mobility shift assay
# [13] = biological target: Fibroblast growth factor receptor 3 (Homo sapiens) (UniProt P22607); assay: Inhibition of FGFR3 (unknown origin) by Nano-syn mobility shift assay
# [14] = biological target: Tyrosine-protein kinase receptor UFO (Homo sapiens) (UniProt P30530); assay: Inhibition of AXL (unknown origin) by Nano-syn mobility shift assay
# [15] = biological target: Platelet-derived growth factor receptor alpha (Homo sapiens) (UniProt P16234); assay: Inhibition of PDFGRA (unknown origin) by Nano-syn mobility shift assay; settings: concentration not given here
# Platelet-derived growth factor receptor alpha (Homo sapiens), sequence (P16234 whole entry): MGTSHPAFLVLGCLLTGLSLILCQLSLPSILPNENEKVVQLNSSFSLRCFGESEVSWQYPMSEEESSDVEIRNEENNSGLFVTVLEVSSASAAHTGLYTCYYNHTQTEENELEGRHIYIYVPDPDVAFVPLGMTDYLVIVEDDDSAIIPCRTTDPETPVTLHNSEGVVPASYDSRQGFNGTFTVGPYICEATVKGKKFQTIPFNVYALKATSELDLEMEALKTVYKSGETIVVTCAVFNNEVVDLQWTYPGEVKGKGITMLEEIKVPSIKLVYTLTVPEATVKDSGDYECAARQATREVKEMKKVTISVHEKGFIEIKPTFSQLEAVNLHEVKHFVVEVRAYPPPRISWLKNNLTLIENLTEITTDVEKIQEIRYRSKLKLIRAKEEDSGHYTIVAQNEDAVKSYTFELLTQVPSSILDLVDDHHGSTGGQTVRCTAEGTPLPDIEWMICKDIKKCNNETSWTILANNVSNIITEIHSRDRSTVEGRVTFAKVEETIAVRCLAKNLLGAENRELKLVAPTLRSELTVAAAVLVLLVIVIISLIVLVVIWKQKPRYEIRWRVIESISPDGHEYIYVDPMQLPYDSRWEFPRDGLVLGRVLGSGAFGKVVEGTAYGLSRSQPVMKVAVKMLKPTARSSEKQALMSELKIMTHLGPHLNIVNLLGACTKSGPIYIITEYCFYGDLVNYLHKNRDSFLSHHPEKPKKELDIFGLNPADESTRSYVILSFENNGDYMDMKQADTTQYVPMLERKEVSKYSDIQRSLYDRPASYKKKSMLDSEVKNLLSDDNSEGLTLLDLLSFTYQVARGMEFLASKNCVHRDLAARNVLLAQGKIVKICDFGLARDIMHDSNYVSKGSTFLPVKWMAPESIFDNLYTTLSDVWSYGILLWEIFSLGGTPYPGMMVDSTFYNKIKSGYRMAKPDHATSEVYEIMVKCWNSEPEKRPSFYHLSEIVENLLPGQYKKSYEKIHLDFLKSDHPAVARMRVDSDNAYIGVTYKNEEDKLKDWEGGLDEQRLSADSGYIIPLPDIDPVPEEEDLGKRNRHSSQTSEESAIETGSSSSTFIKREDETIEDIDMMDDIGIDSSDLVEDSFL
# [16] = biological target: Receptor-type tyrosine-protein kinase FLT3 (Homo sapiens) (UniProt P36888); assay: Inhibition of FLT3 (unknown origin) by Nano-syn mobility shift assay; settings: concentration not given here
# [17] = biological target: High affinity nerve growth factor receptor (Homo sapiens) (UniProt P04629); assay: Inhibition of NTRK1 (unknown origin) by Nano-syn mobility shift assay; settings: concentration not given here
# [18] = biological target: Tyrosine-protein kinase Lck (Homo sapiens) (UniProt P06239); assay: Inhibition of LCK (unknown origin) by Nano-syn mobility shift assay; settings: concentration not given here
# Tyrosine-protein kinase Lck (Homo sapiens), sequence (P06239 2-509 limits assumed): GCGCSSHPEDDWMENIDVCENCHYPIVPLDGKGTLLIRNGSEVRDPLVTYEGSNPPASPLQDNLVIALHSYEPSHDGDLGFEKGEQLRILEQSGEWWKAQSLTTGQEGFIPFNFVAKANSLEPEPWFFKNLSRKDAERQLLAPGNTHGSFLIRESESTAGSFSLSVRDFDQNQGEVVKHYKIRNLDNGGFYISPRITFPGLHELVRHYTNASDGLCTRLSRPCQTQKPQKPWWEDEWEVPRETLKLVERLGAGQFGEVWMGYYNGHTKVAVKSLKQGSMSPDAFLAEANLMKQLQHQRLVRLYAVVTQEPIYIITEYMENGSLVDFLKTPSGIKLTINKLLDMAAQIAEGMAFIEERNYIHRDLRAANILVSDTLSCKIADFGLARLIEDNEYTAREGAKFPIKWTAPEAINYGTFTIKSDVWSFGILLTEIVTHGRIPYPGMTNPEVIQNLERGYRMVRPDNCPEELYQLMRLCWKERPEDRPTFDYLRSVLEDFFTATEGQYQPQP
# [19] = biological target: Tyrosine-protein kinase ABL2 (Homo sapiens) (UniProt P42684); assay: Inhibition of ABL2 (unknown origin) by Nano-syn mobility shift assay; settings: concentration not given here
# [20] = biological target: Angiopoietin-1 receptor (Homo sapiens) (UniProt Q02763); assay: Inhibition of TEK (unknown origin) by Nano-syn mobility shift assay; settings: concentration not given here
# Angiopoietin-1 receptor (Homo sapiens), sequence (Q02763 whole entry): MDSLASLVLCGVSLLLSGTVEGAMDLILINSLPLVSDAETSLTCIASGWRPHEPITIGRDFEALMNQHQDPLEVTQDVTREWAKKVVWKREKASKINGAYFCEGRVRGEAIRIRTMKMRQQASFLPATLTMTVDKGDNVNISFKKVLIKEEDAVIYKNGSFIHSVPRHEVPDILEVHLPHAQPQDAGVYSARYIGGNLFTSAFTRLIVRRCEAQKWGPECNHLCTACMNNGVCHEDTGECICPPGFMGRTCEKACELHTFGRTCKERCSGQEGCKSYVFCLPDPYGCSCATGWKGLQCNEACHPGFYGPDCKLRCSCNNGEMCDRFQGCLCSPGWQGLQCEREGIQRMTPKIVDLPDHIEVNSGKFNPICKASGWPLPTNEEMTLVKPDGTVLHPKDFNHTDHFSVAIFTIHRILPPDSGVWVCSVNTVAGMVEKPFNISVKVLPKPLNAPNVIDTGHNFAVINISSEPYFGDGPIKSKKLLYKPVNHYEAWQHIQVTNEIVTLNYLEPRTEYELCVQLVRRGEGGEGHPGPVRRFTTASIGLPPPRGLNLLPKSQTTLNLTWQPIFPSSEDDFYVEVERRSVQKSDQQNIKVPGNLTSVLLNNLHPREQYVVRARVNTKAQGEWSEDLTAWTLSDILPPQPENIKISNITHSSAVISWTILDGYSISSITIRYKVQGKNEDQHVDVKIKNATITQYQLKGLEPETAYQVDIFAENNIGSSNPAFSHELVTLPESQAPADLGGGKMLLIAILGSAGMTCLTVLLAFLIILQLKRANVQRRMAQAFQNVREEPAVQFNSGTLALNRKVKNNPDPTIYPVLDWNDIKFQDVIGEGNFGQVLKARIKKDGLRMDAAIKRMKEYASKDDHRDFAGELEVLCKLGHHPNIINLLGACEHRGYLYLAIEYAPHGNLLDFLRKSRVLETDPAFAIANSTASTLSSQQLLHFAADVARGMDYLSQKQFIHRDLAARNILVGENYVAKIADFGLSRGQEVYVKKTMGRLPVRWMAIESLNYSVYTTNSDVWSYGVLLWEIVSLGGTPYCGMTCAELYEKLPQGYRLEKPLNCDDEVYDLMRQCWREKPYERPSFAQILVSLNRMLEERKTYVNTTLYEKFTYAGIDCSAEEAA
# Homo sapiens [21] = species: Homo sapiens; assay: Inhibition of LYNB (unknown origin) by Nano-syn mobility shift assay; settings: concentration not given here
# Homo sapiens [22] = species: Homo sapiens; assay: Inhibition of LYNA (unknown origin) by Nano-syn mobility shift assay; settings: concentration not given here
# [23] = biological target: Tyrosine-protein kinase receptor UFO (Homo sapiens, UniProt P30530); assay: Inhibition of AXL (unknown origin) using peptide substrate in presence of ATP by radiometric HotSpot assay
# [24] = biological target: Platelet-derived growth factor receptor beta (Homo sapiens) (UniProt P09619); assay: Inhibition of PDFGRB (unknown origin) by Nano-syn mobility shift assay
# [25] = biological target: Muscle, skeletal receptor tyrosine-protein kinase (Homo sapiens) (UniProt O15146); assay: Inhibition of MUSK (unknown origin) by Nano-syn mobility shift assay
# [26] = biological target: Vascular endothelial growth factor receptor 3 (Homo sapiens) (UniProt P35916); assay: Inhibition of FLT4 (unknown origin) by Nano-syn mobility shift assay
# [27] = biological target: Vascular endothelial growth factor receptor 1 (Homo sapiens) (UniProt P17948); assay: Inhibition of FLT1 (unknown origin) by Nano-syn mobility shift assay
# [28] = biological target: Ephrin type-A receptor 8 (Homo sapiens) (UniProt P29322); assay: Inhibition of EPH-A8 (unknown origin) by Nano-syn mobility shift assay
# [29] = biological target: Discoidin domain-containing receptor 2 (Homo sapiens) (UniProt Q16832); assay: Inhibition of DDR2 (unknown origin) by Nano-syn mobility shift assay
# [30] = biological target: Proto-oncogene tyrosine-protein kinase receptor Ret (Homo sapiens) (UniProt P07949); assay: Inhibition of RET (unknown origin) by Nano-syn mobility shift assay
# RAF proto-oncogene serine/threonine-protein kinase (Homo sapiens), sequence (P04049 whole entry): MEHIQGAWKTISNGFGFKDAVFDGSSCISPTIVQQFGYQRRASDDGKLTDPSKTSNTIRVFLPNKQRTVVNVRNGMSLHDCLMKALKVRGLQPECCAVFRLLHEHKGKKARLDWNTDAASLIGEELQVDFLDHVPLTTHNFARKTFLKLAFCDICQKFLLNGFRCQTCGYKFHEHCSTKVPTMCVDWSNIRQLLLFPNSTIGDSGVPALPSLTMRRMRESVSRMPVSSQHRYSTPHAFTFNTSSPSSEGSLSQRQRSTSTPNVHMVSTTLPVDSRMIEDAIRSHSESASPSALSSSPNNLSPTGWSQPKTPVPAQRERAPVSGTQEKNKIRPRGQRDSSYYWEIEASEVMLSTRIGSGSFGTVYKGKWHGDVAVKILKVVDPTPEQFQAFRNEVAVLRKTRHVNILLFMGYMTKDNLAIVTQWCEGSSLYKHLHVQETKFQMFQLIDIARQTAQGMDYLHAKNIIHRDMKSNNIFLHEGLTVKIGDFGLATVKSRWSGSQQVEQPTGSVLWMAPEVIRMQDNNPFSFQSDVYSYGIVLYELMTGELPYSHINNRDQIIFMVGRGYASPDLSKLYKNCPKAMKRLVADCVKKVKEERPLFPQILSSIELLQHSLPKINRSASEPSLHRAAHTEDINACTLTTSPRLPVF
inhibition [10],inhibition [11],SMILES,inhibition [1],inhibition [2],IC50 [3],GI50 (BaF3 [4]),GI50 (BaF3 [5]),GI50 (K562),inhibition [6],inhibition [7],inhibition [8],inhibition [9],inhibition [15],inhibition [16],inhibition [17],inhibition [18],inhibition [19],inhibition [20],inhibition (Homo sapiens [21]),inhibition (Homo sapiens [22]),other results
,,CC(C)(C)c1cc(NC(=O)Nc2ccc(Oc3ccc4cccnc4c3)cc2)n(-c2ccc3ncccc3c2)n1,Active,Active,719 nM,> 5000 nM,> 10000 nM,239 nM,,,,,,,,,,,,,
,,CN1CCN(Cc2ccc(NC(=O)Nc3ccc(Oc4ccc5cccnc5c4)cc3)cc2C(F)(F)F)CC1,Active,Active,637 nM,> 10000 nM,> 10000 nM,451 nM,Active,Active,Active,Active,,,,,,,,,
Active,Active,CC(C)(C)c1cc(NC(=O)Nc2ccc(Oc3ccc4ncncc4c3)cc2)n(-c2ccc3ncccc3c2)n1,,,,66 nM,269 nM,4 nM,,,,,> 50%,> 50%,> 50%,> 50%,> 50%,> 50%,,,inhibition [12]: Active; inhibition [13]: Active; inhibition [14]: Active
Active,Active,CN1CCN(Cc2ccc(NC(=O)Nc3ccc(Oc4ccc5ncncc5c4)cc3)cc2C(F)(F)F)CC1,,,15.7 nM,83 nM,117 nM,2.3 nM,Active,Active,Active,Active,> 50%,> 50%,> 50%,> 50%,> 50%,> 50%,> 50%,> 50%,inhibition [12]: Active
,,CC(C)(C)c1cc(NC(=O)Nc2ccc(Oc3ccc4ncccc4c3)cc2)n(-c2ccc3ncccc3c2)n1,Active,Active,345 nM,164 nM,801 nM,13 nM,,,,,> 50%,> 50%,> 50%,> 50%,> 50%,> 50%,> 50%,> 50%,inhibition [13]: Active; inhibition [14]: Active; IC50 [23]: 12 nM
,,CN1CCN(Cc2ccc(NC(=O)Nc3ccc(Oc4ccc5ncccc5c4)cc3)cc2C(F)(F)F)CC1,Active,Active,38.3 nM,36 nM,162 nM,6.9 nM,Active,Active,Active,Active,> 50%,> 50%,> 50%,> 50%,> 50%,> 50%,> 50%,> 50%,inhibition [24]: Active; inhibition [25]: Active; inhibition [26]: Active; inhibition [27]: Active; inhibition [28]: Active; inhibition [29]: Active; inhibition [30]: Active
